Laboratory results published in publication PMC8533333, “Melatonin Analogues Potently Inhibit MAO-B and Protect PC12 Cells against Oxidative Stress” (Antioxidants, 2021).

What was measured:
[1] = target: T1, Human recombinant MAO-A (hMAO-A) (Homo sapiens, UniProt P21397); test: MAO-A enzyme assay (Amplex Red), selectivity; format: biochemical
T1 construct: purchased Sigma Aldrich; host or cells: insect cells
T1 sequence (P21397 1-527): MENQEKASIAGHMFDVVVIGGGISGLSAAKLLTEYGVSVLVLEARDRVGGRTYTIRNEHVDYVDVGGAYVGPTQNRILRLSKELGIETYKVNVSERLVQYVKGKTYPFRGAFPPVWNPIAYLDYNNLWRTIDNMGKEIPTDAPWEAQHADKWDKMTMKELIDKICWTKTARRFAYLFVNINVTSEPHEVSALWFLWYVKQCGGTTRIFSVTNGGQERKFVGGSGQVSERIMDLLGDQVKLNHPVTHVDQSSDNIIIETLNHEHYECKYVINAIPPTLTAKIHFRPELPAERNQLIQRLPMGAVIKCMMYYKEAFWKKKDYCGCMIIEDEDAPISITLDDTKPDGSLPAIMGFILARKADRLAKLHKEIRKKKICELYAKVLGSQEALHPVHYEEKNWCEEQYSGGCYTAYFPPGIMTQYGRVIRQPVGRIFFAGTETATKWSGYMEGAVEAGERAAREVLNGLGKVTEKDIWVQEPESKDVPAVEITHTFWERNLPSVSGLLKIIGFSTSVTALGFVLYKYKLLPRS
Experimental: (§1) Biological evaluation of the synthesized melatonin derivatives over both MAO-A and MAO-B was performed as reported previously. A detailed description of the protocol is in the Supplementary Materials.
(§2) 6. Materials and methods of monoamine oxidase (MAO) enzyme assay
(§3) The inhibitory activity of MAO-A, B enzyme of the compounds was evaluated based on previously described method. The MAO activity was measured in relative fluorescence units (RFU) evoked by peroxidase-catalyzed oxidation of Amplex Red® to resorufin, in which H2O2 generated by MAO reaction was used as the […]. Human recombinant MAO-A (hMAO-A) and MAO-B (hMAO-B) enzyme expressed in insect cells were obtained from Sigma Aldrich. The 2 μL of test compound in DMSO (final concentration: 1 nM – 10 μM) was treated with 98 μL of hMAO enzyme solution in 50 mM sodium phosphate buffer (pH 7.4, final protein amounts: ~1.25 μg protein/well for MAO-A and ~2.5 μg protein/well for MAO -B) on 96-well black plate and incubated for 15 min at 37 °C. Then 100 μL of reaction working solution which is mixed solution of 400 μM Amplex Red® (Cayman, final concentration: 200 μM), 2 U/mL horseradish peroxidase ( Sigma-Aldrich, final concentration: 1 U/mL) and 2 mM substrate ( p-tyramine for MAO -A, benzylamine for MAO -B, Sigma-Aldrich, final concentration: 1 mM) in 50 mM sodium phosphate buffer (pH 7.4) were added and incubated for 20 min at 37 °C in the dark. The fluorescent intensity was quantified using a microplate reader (SpectraMax®i3, Molecular Device) with an excitation at 545 nm and an emission at 590 nm. The 50% inhibitory concentrations (IC50) of compounds were determined as the mean ± S.E.M. in triplicate from the dose-response inhibition curves using SigmaPlot® 13.0.
monoamine oxidase inhibitors. Bioorganic & medicinal chemistry 2015, 23, 6486-6496,

[2] = target: T2, Human recombinant MAO-B (hMAO-B) (Homo sapiens, UniProt P27338); test: MAO-B enzyme assay (Amplex Red, resorufin fluorescence); format: biochemical; conditions: for Selectivity Index (SI): IC50 (MAO-A)/IC50 (MAO-B); for IC50: five doses 10-0.001 µM, triplicate; for inhibition at 10 µM: single dose 10 µM
T2 construct: purchased Sigma Aldrich; host or cells: insect cells
T2 sequence (P27338 1-520): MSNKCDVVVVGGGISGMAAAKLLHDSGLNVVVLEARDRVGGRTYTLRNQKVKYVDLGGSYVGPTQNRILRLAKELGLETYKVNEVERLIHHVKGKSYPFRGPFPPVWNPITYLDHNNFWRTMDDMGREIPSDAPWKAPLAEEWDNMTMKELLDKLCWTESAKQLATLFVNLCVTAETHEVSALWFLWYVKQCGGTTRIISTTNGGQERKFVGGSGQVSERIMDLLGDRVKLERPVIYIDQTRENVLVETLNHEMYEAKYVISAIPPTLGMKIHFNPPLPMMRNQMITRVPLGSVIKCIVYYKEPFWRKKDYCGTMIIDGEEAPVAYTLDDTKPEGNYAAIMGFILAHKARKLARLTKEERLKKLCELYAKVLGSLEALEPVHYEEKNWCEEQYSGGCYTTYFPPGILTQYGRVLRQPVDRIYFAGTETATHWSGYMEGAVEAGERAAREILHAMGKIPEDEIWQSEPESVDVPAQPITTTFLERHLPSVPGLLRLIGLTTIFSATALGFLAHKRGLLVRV
Experimental: as §1
First, the synthesized melatonin analogues (3a–x) were biologically evaluated over an MAO-B recombinant enzyme. The experiment was performed using Amplex® Red reagent technology. This technology offers quantitative enzyme activity sensitive detection, a wider dynamic range, and fluorescence emission outside the range of compound autofluorescence (if any). The Amplex® Red reagent is a colorless substrate that reacts with H2O2 in a 1:1 stoichiometry to produce a highly fluorescent resorufin; therefore, the induced inhibitory effects of the melatonin analogues over MAO-B were examined via spectrophotometry where the fluorescence rate of resorufin dye formation was measured.
Accordingly, compounds 3n, 3r, and 3u–w were further tested to determine their IC50 values over MAO-B in triplicate from the dose–response inhibition curves using Sigma-Plot software 13.0.
as §2
as §3, with “13.0. […]” for “13.0.”

[3] = Neuroprotection against 6-OHDA-induced oxidative toxicity in PC12 cells (MTT); conditions: rat
Experimental: (§4) Control cells were incubated in an equivalent volume of DMSO to a final concentration of 0.3%. Neuroprotective effects of the tested compounds on the toxicity induced by 6-OHDA or rotenone in PC12 cells were evaluated as described previously with slight modifications. In brief, cells were pre-treated with the tested compounds or rasagiline at the indicated concentrations for 4 h. Next, they were exposed to 6-OHDA (50 μM) or rotenone (1 μM) for 24 h. In another set of experiments, the influence of HO-1 inhibitor, ZnPP, on the neuroprotective effects of the tested compounds against 6-OHDA-induced oxidative damage was investigated as previously reported. Briefly, the cells were pre-treated with the tested compounds for 4 h and then incubated with 0.2 µM of ZnPP for 30 min. Subsequently, 6-OHDA was added at a final concentration of 50 µM and incubated for 24 h.
After the desired treatment, cell viability was determined by MTT assay as described previously. Briefly, MTT was added to the cells at the final concentration of 0.5 mg/mL, which was followed by incubation for 3 h at 37 °C. […] The absorbance of the dissolved solution was measured at 550 nm using a microplate reader (SpectraMax M2^e, Molecular Devices, Sunnyvale, CA, USA). The cell viability was presented as the percentage of the absorbance measured in the vehicle-treated control cells.

[4] = test system: MAO-B; parameters: method as in PMID 32752896; conditions: cited from earlier work
[5] = Neuroprotection against rotenone-induced toxicity in PC12 cells (MTT); conditions: rat
Experimental: as §4
After the desired treatment, cell viability was determined by MTT assay as described previously. Briefly, MTT was added to the cells at the final concentration of 0.5 mg/mL, which was followed by incubation for 3 h at 37 °C. The supernatants were carefully removed, and then, 300 μL of DMSO was added to each well to dissolve formazan precipitate. The absorbance of the dissolved solution was measured at 550 nm using a microplate reader (SpectraMax M2^e, Molecular Devices, Sunnyvale, CA, USA). The cell viability was presented as the percentage of the absorbance measured in the vehicle-treated control cells.

Structure (SMILES) | IC50 [1] [µM] | Selectivity Index (SI) [2] | IC50 [2] [nM] | inhibition at 10 µM [2] [%] | melting point [°C] | viability at 24 h, 50 µM [3] [%] | IC50 [4] [nM] | Ki ([4]; competitive) [nM] | viability at 24 h, 1 μM [5] [%]
NCCc1cc(O)c(O)cc1O [6-OHDA, 6-Hydroxydopamine] | – | – | – | – | – | 50.9 ± 3.1 | – | – | –
O=C(Nc1ccc2c(ccn2C(=O)c2cccc(F)c2)c1)c1cnccn1 [N-(1-(3-fluorobenzoyl)-1H-indol-5-yl)pyrazine-2-carboxamide] | – | – | – | – | – | – | 780 | 94.5 | –
C=C(C)[C@H]1Cc2c(ccc3c2O[C@@H]2COc4cc(OC)c(OC)cc4[C@@H]2C3=O)O1 [rotenone, reference compound] | – | – | – | – | – | – | – | – | 64.4 ± 1.4

The next lines start with results.

IC50 [1] [µM] | Selectivity Index (SI) [2] | IC50 [2] [nM] | inhibition at 10 µM [2] [%] | melting point [°C] | Structure (SMILES) | viability at 24 h, 50 µM [3] [%] | IC50 [4] [nM] | Ki ([4]; competitive) [nM] | viability at 24 h, 1 μM [5] [%]
> 100 | >83 | 1200 | 85.12 ± 0.22 | 148 to 150 | O=C(Nc1ccc2[nH]ccc2c1)c1cccc(C(F)(F)F)c1 [3u, N-(1H-indol-5-yl)-3-(trifluoromethyl)benzamide] | – | – | – | –
> 100 | >151 | 660 | 91.22 ± 0.11 | 206 to 207 | O=C(Nc1ccc2[nH]ccc2c1)c1ccc(C(F)(F)F)cc1 [3v, N-(1H-indol-5-yl)-4-(trifluoromethyl)benzamide] | – | – | – | –
> 100 | >41 | 2410 | 72.63 ± 0.32 | 199 to 201 | O=C(Nc1ccc2[nH]ccc2c1)c1cc(Cl)cc(Cl)c1 [3w, 3,5-Dichloro-N-(1H-indol-5-yl)benzamide] | – | – | – | –
